Columns and labels:
[1] = test system: retinal neovascularization; test: Oxygen-induced ischemic retinopathy in mice, lectin staining of retinal endothelial cells with image analysis; assay type: in vivo, C57/BL6J mice
Procedure: Ophthalmol. Vis. […] Vehicle (1% DMSO) or vehicle containing various concentrations of the drug (volume=10 μl per gram body weight) is placed in the stomach by gavage.
Some slides are counterstained with hematoxyln and all were mounted with Cytoseal.

[2] = test system: endothelial cells of mature vessels; test: Effect on mature retinal vessels of adult mice, lectin staining with image analysis; assay type: in vivo, Adult C57BL6J mice; details: 600 mg/kg by gavage once a day, 5 days
Procedure: After 5 days of treatment, the mice are sacrificed, eyes are rapidly removed and frozen in optimum cutting temperature embedding compound (OCT; Miles Diagnostics, Elkhart, Ind.) or fixed in 10% phosphate-buffered formalin and embedded in paraffin. Adult C57BL6J mice are also treated by gavage with the drug or vehicle and after 5 days, they are sacrificed and their eyes are processed for frozen or paraffin sections.

[3] = test system: retinal vascular development; test: Retinal vascular development in neonatal mice, fluorescein-dextran perfused retinal flat mounts; assay type: in vivo, newborn C57/BL6J mice; details: daily subcutaneous 100 mg/kg
Procedure: Litters of newborn C57/BL6J mice (neonatal mice) are divided into treatment and control groups which received daily subcutaneous injections of 100 mg/kg of the drug or vehicle, respectively. At 7 or 10 days of age, the mice are anesthetized with ether, and perfused with 1 ml of phosphate-buffered saline containing 50 mg/ml of fluorescein-labeled dextran (2×10^6 average mw, Sigma, St. Louis, Mo.) as described by Tobe et al., Evolution of Neovascularization in Mice with Overexpression of VEGF in Photoreceptors, Invest. Ophthalmol. Vis. Sci. 39, 180-188 (1998). The eyes are removed and fixed for 1 hour in 10% phosphate-buffered formalin. The cornea and lens are removed and the entire retina is carefully dissected from the eyecup. Radially cuts are made from the edge of the retina to the equator in all 4 quadrants, and the retina is flat-mounted in Aquamount with photoreceptors facing upward. […] Image-Pro™ Plus is used to measure the distance from the center of the optic nerve to the leading front of developing retinal vessels in each quadrant and the mean is used as a single experimental value.

[4] = test system: choroidal neovascularization; test: Laser-induced choroidal neovascularization in mice, lectin staining with integrated area measurement; assay type: in vivo, C57BL/6J mice; details: 400 mg/kg/day orally by gavage
Procedure: C57BL/6J mice are treated in accordance with the Association for Research in Vision and Ophthalmology resolution for the treatment of animals. […] J Path, in press. Briefly, 4 to 5 week old male C57BL/6J mice are anesthetized with ketamine hydrochloride (100 mg/kg body weight) and the pupils are dilated with 1% tropicamide. Three burns of krypton laser photocoagulation (100 μm spot size, 0.1 seconds duration, 150 mW) are delivered to each retina using the slit lamp delivery system of a Coherent Model 920 Photocoagulator and a hand held cover slide as a contact lens. Burns are performed in the 9, 12, and 3 o'clock positions of the posterior pole of the retina. Production of a bubble at the time of laser, which indicates rupture of Bruch's membrane, is an important factor in obtaining CNV, so only mice in which a bubble is produced for all three burns are included. […] After 14 days, the mice are killed with an overdose of pentobarbital sodium, and their eyes are rapidly removed and frozen in optimal cutting temperature embedding compound (OCT). […] Slides are rinsed with 0.05M TBS and incubated 2 hours at 37° C. with biotinylated lectin. […] After a 10 minute incubation in 0.05 M Tris buffer, pH 7.6, slides are developed in Histomark Red (Kirkegaard and Perry) to give a red reaction product, and mounted with Cytoseal (Stephens Scientific, Riverdale, N.J.). Some slides are counterstained with Contrast Blue (Kirkegaard and Perry).
For each lesion, area measurements are made for all sections on which some of the lesion appeared and added together to give the integrated area measurement. Values are averaged to give one experimental value per mouse. A 2-sample t-test for unequal variances is performed to compare the log mean integrated area between treatment and control mice.

CO[C@@H]1[C@H](N(C)C(=O)c2ccccc2)C[C@H]2O[C@]1(C)n1c3ccccc3c3c4c(c5c6ccccc6n2c5c31)C(=O)NC4 [NBS, N-benzoyl-staurosporine]
endothelial cell staining on and in the retinas by image analysis versus vehicle-treated mice ([1]; 60 mg/kg once a day): significantly less | clumps of neovascularization on the surface of the retina versus vehicle-treated control mice ([1]; 60 mg/kg twice a day, gavage): less than clumps in the retina of the vehicle-treated control mice | clumps of neovascularization on the surface of the retina versus vehicle-treated control mice ([1]; 300 mg/kg twice a day, gavage): less than clumps in the retina of the vehicle-treated control mice | endothelial cell staining on and in the retinas by image analysis versus vehicle-treated mice ([1]; 600 mg/kg once a day): significantly less | endothelial cell staining on the surface and within the retina compared to vehicle-treated mice ([1]; 600 mg/kg once a day for 5 days, gavage): dramatic decrease | total area of endothelial staining in the retina or appearance of retinal vessels compared to vehicle-treated mice [2]: no difference | toxicity to endothelial cells of mature vessels [2]: not toxic | difference in distance from the optic nerve to the vascular front between treated and control mice ([3]; at 7 and 10 days of age): statistically significant | extent of retinal vessels toward the periphery ([3]; at 7 days of age): only extend slightly more than halfway to the periphery | extent of superficial capillary bed ([3]; at 10 days of age): has not yet reached the edge of the retina | integrated area of lectin staining per lesion ([4]; 14 days after laser, vehicle 0.0695621±0.0073960 mm^2, p=0.004): 0.009018±0.001754 mm^2 | appearance of overlying retinal vessels in eyes of treated mice ([4]; two weeks after laser): appear normal | choroidal neovascularization at the site of each laser-induced rupture of Bruch's membrane ([4]; two weeks after laser): very little if any choroidal neovascularization

Reference: US20030153551A1, “Method for treating ocular neovascular diseases” (priority 2002, published 2003)
